Data: patent US6998470B1, “Process for large-scale isolation and purification of hypothalamic inhibitory factor” (Bion, Inc., priority 1997, dated 2006)

Assays:
[1] = test system: Na+-K+-ATPase pump activity in human erythrocytes; assay: standard human erythrocyte 86Rb+ uptake assay; assay type: cell-based; conditions: RBC 86Rb+ uptake assay
Description: As defined herein, purified HIF refers to HIF which is substantially free of or isolated from other tissue or fluid protein components and contaminants. In addition, the purified HIF of the present invention has at least 40% activity recovery. Preferably, the purified HIF has about 50–75% activity recovery, more preferably the purified HIF has about 75–90% activity recovery and most preferably, the purified HIF has about 90–95% activity recovery. As defined herein, “activity recovery” of HIF is the activity of HIF as measured indirectly by, for example a biological assay such as specific inhibition of Na^+-K^+-ATPase pump activity in human erythrocytes, or as measured directly, for example, by UV absorbance following HPLC chromatography.
(§1) Several available anti-digoxin antibodies were studied to determine relative affinity for ouabain.

purified Na, K-ATPase = conditions: Haupert et al. 1984; read-out: affinity constant for binding to purified Na, K-ATPase; cited from earlier work
[2] = target: T1, monoclonal antibody 26-10 (Mus musculus, UniProt P01631); assay: 125I competition plate assay using goat-anti-mouse IgG Fab to bind the antibodies; design: species or system mice; conditions: read-out: relative affinity (IC50); binding to anti-digoxin mAb 26-10
T1 construct: fused on or other part: Heavy chain of mAb 26-10 (A/J mouse), which forms most of the digoxin/ouabain pocket
Description: as §1
Monoclonal antidigoxin antibody 26-10 was obtained from A/J mice immunized with a digoxin-human serum albumin (Dig-HSA) conjugate and spleen cells were fused with the non-secreting murine myeloma Sp2/0 cell line (Mudgett-Hunter, M., et al. J. Immunol., 129:1165–1172 (1982)). Hybridoma cells identified by radioimmunoassay (RIA) as secreting anti-digoxin antibody were cloned and grown in tissue culture and amplified in the ascites form in mice. Digoxin specific hybridoma proteins were purified from ascites by a variety of chromatographic methods, including ion-exchange chromatography on DEAE cellulose and affinity chromatography on Digoxin-BSA-Sepharose or ouabain-amine Sepharose.

T1 sequence (P01631 whole entry, the tested form may be a part): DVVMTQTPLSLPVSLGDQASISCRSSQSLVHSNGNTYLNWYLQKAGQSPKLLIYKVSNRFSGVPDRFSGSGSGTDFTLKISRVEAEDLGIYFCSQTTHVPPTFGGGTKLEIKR

## C[C@@H]1O[C@@H](O[C@H]2C[C@@H](O)[C@]3(CO)[C@H]4[C@H](O)C[C@]5(C)[C@@H](C6=CC(=O)OC6)CC[C@]5(O)[C@@H]4CC[C@]3(O)C2)[C@H](O)[C@H](O)[C@H]1O [ouabain]
[1]
  amount equal to 1 U (1 U=50% inhibition under standard conditions): approximately 0.75 pmol
Purified Na, K-ATPase
  Kd: ~1 nM
[2]
  IC50: 300 nM
